Data: the NIST ThermoML archive (doi:10.1016/j.tca.2011.08.021)
Where “and” joins values, the source holds several entries; their conditions need not be identical. Equal values may be shown once. ± gives the expanded uncertainty stated by the source.

Columns and labels:
[1] = molar heat capacity at constant pressure; details: 101.33 kPa, Crystal, Small sample (50 mg) DSC
[2] = 393 K; 101.33 kPa; Crystal; X-ray diffraction

[Nd+3].[Nd+3].[O-2].[O-2].[O-2].[O-2].[O-2].[O-2].[O-2].[Zr+4].[Zr+4] [dineodymium(III) dizirconium(IV) oxide]
molar heat capacity at constant pressure ([1]; 293 K): 236.67 ± 4.7 J/K/mol
molar heat capacity at constant pressure ([1]; 303 K): 238.41 ± 4.8 J/K/mol
molar heat capacity at constant pressure ([1]; 313 K): 240.75 ± 4.8 J/K/mol
molar heat capacity at constant pressure ([1]; 573 K): 275.35 ± 5.5 J/K/mol
molar heat capacity at constant pressure ([1]; 623 K): 280.65 ± 5.6 J/K/mol
molar heat capacity at constant pressure ([1]; 673 K): 284.79 ± 5.7 J/K/mol
molar heat capacity at constant pressure ([1]; 723 K): 288.11 ± 5.8 J/K/mol
molar heat capacity at constant pressure ([1]; 773 K): 290.8 ± 5.8 J/K/mol
molar heat capacity at constant pressure ([1]; 823 K): 293.01 ± 5.9 J/K/mol
molar heat capacity at constant pressure ([1]; 873 K): 294.85 ± 5.9 J/K/mol
molar heat capacity at constant pressure ([1]; 923 K): 296.39 ± 5.9 J/K/mol
molar heat capacity at constant pressure ([1]; 973 K): 297.7 ± 6 J/K/mol
molar heat capacity at constant pressure ([1]; 1023 K): 298.83 ± 6 J/K/mol
molar heat capacity at constant pressure ([1]; 1073 K): 299.79 ± 6 J/K/mol
molar heat capacity at constant pressure ([1]; 1123 K): 300.63 ± 6 J/K/mol and 302 ± 6 J/K/mol
molar heat capacity at constant pressure ([1]; 1173 K): 301.36 ± 6 J/K/mol
molar heat capacity at constant pressure ([1]; 1273 K): 302.57 ± 6.1 J/K/mol
molar heat capacity at constant pressure ([1]; 1323 K): 303.07 ± 6.1 J/K/mol
molar heat capacity at constant pressure ([1]; 1373 K): 303.52 ± 6.1 J/K/mol
mass density [2]: 6411 ± 44 kg/m3
